This is an account of results in patent publication US6683184B2, “Piperazine derivatives and process for the preparation thereof” (Samjin Pharmaceutical Co., Ltd., priority 1999, dated 2004).

As usually defined, the LD50 is the dose at which mortality reaches 50%.

Series [1] has as its system SKOV-3 (human ovarian). In words: In vitro antitumor effect against human tumor cell lines, SRB assay, SKOV-3. Format: cell-based. To be noted: SK-OV-3 cells, 48 hours; for IC50: Homo sapiens, read-out: ED50 SK-OV-3. The essentials:
(§1)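 Cells grown in RPMI 1640 with 10% FBS at 37° C, 5% CO2, seeded at 5×10^3˜2×10^4 cells/well and grown 24 h, then exposed to compound (DMSO below 0.5%) for 48 h. SRB staining read at OD 520 nm; response = 100×(T−Tz)/(C−Tz) if T≧Tz, else 100×(T−Tz)/Tz.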
A general note: In SRB staining, fixed cells bind dye roughly in proportion to their protein.

The nature of series [2]: Acute toxicity test (LD50), Litchfield-Wilcoxon method. Format: in vivo. To be noted: mouse, in vivo, ICR mice, male, observed 14 days.
Series [3] concerns P388 (mouse lymphoid neoplasma cell). Briefly: In vitro antitumor effects against animal leukemia cells, dye exclusion assay. The settings on record: 48 hours, trypan blue dye exclusion, read-out: P388 (IC50, concentration showing 50% cell growth inhibition compared with the control). Format: cell-based. How it is done: In vitro antitumor effects against animal leukemia cells.
Tumor cell line: P388 (mouse lymphoid neoplasma cell)
B. Method: Dye Exclusion Assay.
1) Concentrations of P388 cells being cultured in RPMI 1640 media containing 10% FBS were regulated to 1×10^6 cells/ml.
2) Sample drugs of respective concentrations diluted in the ratio of log doses were added into each cell culture and cultured at 37° C., for 48 hours, in […] incubator, and then viable cell numbers were measured by dye exclusion test using trypan blue.

Series [4] deals with HCT-15 (human colon). Briefly: In vitro antitumor effect against human tumor cell lines, SRB assay, HCT-15. Format: cell-based. The settings on record: HCT 15 cells, 48 hours; for IC50: Homo sapiens, read-out: ED50 HCT 15. The essentials: as §1
The test system of series [5] is XF 498 (human CNS). In words: In vitro antitumor effect against human tumor cell lines, SRB assay, XF 498. Format: cell-based. The settings on record: 48 hours; for IC50: Homo sapiens, XF498, XF-498 cells, read-out: ED50 XF-498. The essentials: as §1
In series [6] the test system is A549 (human non-small lung cell). In words: In vitro antitumor effect against human tumor cell lines, SRB assay, A549. Format: cell-based. The settings on record: A549 cells, 48 hours; for IC50: Homo sapiens, read-out: ED50 A 549. The essentials: as §1
The test system of series [7] is SKMEL-2 (human melanoma). Briefly: In vitro antitumor effect against human tumor cell lines, SRB assay, SKMEL-2. Format: cell-based. To be noted: SK-MEL-2 cells, 48 hours; for IC50: Homo sapiens, read-out: ED50 SK-MEL-2. The essentials: as §1
Series [8] relates to ICR mice. In words: Acute toxicity test (LD50), Litchfield-Wilcoxon method. To be noted: male, i.v., observed 14 days. Format: in vivo.

Converted amounts (≈) assume the structure as drawn. Like-named read-outs stand apart in the source and are kept apart here. A value given as a limit tells only on which side of the number the result lay.

For the compound `COc1nc(C)c(C)nc1NC(=O)N1CCN(c2cc(C)cc(C)c2)CC1` [Example 7, 1-[(5,6-Dimethyl-2-methoxypyrazin-3-yl)aminocarbonyl]-4-(3,5-dimethylphenyl)piperazine], the IC50 in series [1] was 7.2 ng/mL (≈ 19.5 nM); in series [3] it was 20 ng/mL (≈ 54.1 nM); in series [4] it was 2.8 ng/mL (≈ 7.58 nM); in series [5], 2.7 ng/mL (≈ 7.31 nM); in series [6], 2.4 ng/mL (≈ 6.5 nM); in series [7], 2.3 ng/mL (≈ 6.23 nM). The LD50 at 14 days in series [2] (iv, i.v., read-out: LD50 i.v.) came out at 75 mg/kg.
For the compound `COc1cc(OC)cc(N2CCN(C(=O)Nc3nc4ccccc4nc3OC)CC2)c1` [Example 38, 1-[(2-Methoxyquinoxalin-3-yl)aminocarbonyl]-4-(3,5-dimethoxyphenyl)piperazine], the IC50 in series [1] came out at 0.09 ng/mL (≈ 0.213 nM); in series [3], 10 ng/mL (≈ 23.6 nM); in series [4], 0.13 ng/mL (≈ 0.307 nM); in series [5] it was 0.11 ng/mL (≈ 0.26 nM); in series [6], 0.03 ng/mL (≈ 0.0708 nM); in series [7], 0.04 ng/mL (≈ 0.0945 nM). The 50% lethal dose (LD50) at 14 days worked out at 97 mg/kg in series [2] (iv, i.v., read-out: LD50 i.v.) and 410 mg/kg in series [2] (po, p.o., read-out: LD50 p.o.).
In the case of `COc1nc(C)c(C)cc1N=C(NO)N1CCN(c2cccc(Br)c2)CC1` [Example 104, N-Hydroxy-N′-(5,6-dimethyl-2-methoxypyridin-3-yl)-[4-(3-bromophenyl)piperazin-1-yl]carboxyimidamide], in series [8], the LD50 i.v. stood at 212 mg/kg.
`COc1nc(C)c(C)cc1N=C(NO)N1CCN(c2cc(C)cc(C)c2)CC1` [Example 99, N-Hydroxy-N′-(5,6-dimethyl-2-methoxypyridin-3-yl)-[4-(3,5-dimethylphenyl)piperazin-1-yl]carboxyimidamide]: in series [1], the “ED50 SK-OV-3” value came to 8 ng/mL (≈ 20.9 nM). In series [8], this compound came in with an LD50 i.v. of over 200 mg/kg. In series [4], the “ED50 HCT 15” value was 3 ng/mL (≈ 7.82 nM). In addition, the “ED50 XF-498” value in series [5] (XF-498 cells) was 10 ng/mL (≈ 26.1 nM). In addition, the “ED50 A 549” value in series [6] stood at 12 ng/mL (≈ 31.3 nM). Besides, in series [7], the “ED50 SK-MEL-2” value was 6 ng/mL (≈ 15.6 nM).
